Source: ChEMBL document CHEMBL4483862, “Open-source discovery of chemical leads for next-generation chemoprotective antimalarials” (2018)

System: Plasmodium berghei
Assay: Luciferase/luciferin-expressing antifolate-resistant parasites were used to infect a culture of HepG2 cells that were pre-incubated with compounds. Infected hepatocytes emit light due to the luciferase reaction. Assay results are presented as the percent inhibition of light emission compared to control. […]
Format: functional
Conditions: sporozoite; for IC90: read-out: LUCIFERASE INFECTION ASSAY - IC90

| Structure (SMILES) | IC90 [µM] | other results |
| --- | --- | --- |
| CC(C)(C)c1cc(CCC(=O)NNC(=S)NC(=O)c2ccccc2)cc(C(C)(C)C)c1O | 3.76 | IC50 (HEPG2TOX_HILL_SLOPE 3.85, HEPG2TOX_R_SQUARED 0.996, PBLUC_HILL_SLOPE 11.4, PBLUC_R_SQUARED 0.664, read-out: LUCIFERASE INFECTION ASSAY - IC50): 3.1 µM |
| Cc1ccc(C(C)C)c(Oc2nnnn2-c2ccccc2)c1 | 4.38 | IC50 (HEPG2TOX_HILL_SLOPE 3.94, HEPG2TOX_R_SQUARED 0.78, PBLUC_HILL_SLOPE 282, PBLUC_R_SQUARED 0.16, read-out: LUCIFERASE INFECTION ASSAY - IC50): 4.34 µM |
| CC(C)Nc1ccc(Nc2ccccc2)cc1 | 3.79 | IC50 (HEPG2TOX_HILL_SLOPE 3.79, HEPG2TOX_R_SQUARED 0.984, PBLUC_HILL_SLOPE 20.8, PBLUC_R_SQUARED 0.712, read-out: LUCIFERASE INFECTION ASSAY - IC50): 3.41 µM |
| O=C1C(Cl)=C(Nc2ccccc2)C(=O)c2ccccc21 | > 11.6 | IC50 (HEPG2TOX_HILL_SLOPE 3.85, HEPG2TOX_R_SQUARED 0.988, PBLUC_HILL_SLOPE 1.86, PBLUC_R_SQUARED 0.682, read-out: LUCIFERASE INFECTION ASSAY - IC50): 3.78 µM |
| Cc1cccc(NC2=C(Cl)C(=O)c3ccccc3C2=O)c1 | 1.4 | IC50 (HEPG2TOX_HILL_SLOPE 3.88, HEPG2TOX_R_SQUARED 0.992, PBLUC_HILL_SLOPE 14.7, PBLUC_R_SQUARED 0.858, read-out: LUCIFERASE INFECTION ASSAY - IC50): 1.2 µM |
| CNc1nc2cnc(Nc3ccc(C(C)C)cc3)cc2n1-c1cc(OC)c(OC)c(OC)c1 | > 10 | IC50 (HEPG2TOX_HILL_SLOPE 3.92, HEPG2TOX_R_SQUARED 0.032, PBLUC_HILL_SLOPE 0.581, PBLUC_R_SQUARED 0.333, read-out: LUCIFERASE INFECTION ASSAY - IC50): > 10 µM |
| COc1ccc(/C=C2\CSc3ccc(Cl)cc3C2=O)cc1 | 5.42 | IC50 (HEPG2TOX_HILL_SLOPE 3.81, HEPG2TOX_R_SQUARED 0.977, PBLUC_HILL_SLOPE 10.6, PBLUC_R_SQUARED 0.089, read-out: LUCIFERASE INFECTION ASSAY - IC50): 4.41 µM |
| CC(C)CCCC(C)C1CCC2(C)C3=C(CCC12C)C1(C)CCC(=O)C(C)(C)C1CC3 (configuration not stated) | 6.57 | IC50 (HEPG2TOX_HILL_SLOPE 3.93, HEPG2TOX_R_SQUARED 0.974, PBLUC_HILL_SLOPE 2.18, PBLUC_R_SQUARED 0.307, read-out: LUCIFERASE INFECTION ASSAY - IC50): 2.4 µM |
| Cc1ccc(Nc2ccc(-c3nc4ccccc4[nH]3)cn2)cc1C | 4.25 | IC50 (HEPG2TOX_HILL_SLOPE 3.79, 0.829, HEPG2TOX_R_SQUARED 0.701, 0.968, PBLUC_HILL_SLOPE 2.85, 14.2, PBLUC_R_SQUARED 0.393, 0.513, read-out: LUCIFERASE INFECTION ASSAY - IC50): 2.27 µM |
| COc1ccc(-c2csc3ncnc(Sc4nnnn4CC4CCCO4)c23)cc1 (configuration not stated) | > 10 | IC50 (HEPG2TOX_HILL_SLOPE 3.82, HEPG2TOX_R_SQUARED 0.683, PBLUC_HILL_SLOPE 2.52, PBLUC_R_SQUARED 0.576, read-out: LUCIFERASE INFECTION ASSAY - IC50): 6.48 µM |
| O=C(NC1CCCC1)c1ccc(-c2cn3c(-c4ccc(Cl)cc4)cnc3cn2)cc1 | 3.49 | IC50 (HEPG2TOX_HILL_SLOPE 3.94, HEPG2TOX_R_SQUARED 0.381, PBLUC_HILL_SLOPE 3.66, PBLUC_R_SQUARED 0.738, read-out: LUCIFERASE INFECTION ASSAY - IC50): 1.91 µM |
| Cc1cc(Cl)c(C)c(S(=O)(=O)N(C)C(C)c2ccc(S(N)(=O)=O)cc2)c1Cl (configuration not stated) | > 10 | IC50 (HEPG2TOX_HILL_SLOPE 3.91, HEPG2TOX_R_SQUARED 0.817, PBLUC_HILL_SLOPE 1.91, PBLUC_R_SQUARED 0.506, read-out: LUCIFERASE INFECTION ASSAY - IC50): 6.84 µM |
| COc1ccc(O)c(/C=N/Nc2ncc(C(F)(F)F)cc2Cl)c1 | 3.73 | IC50 (HEPG2TOX_HILL_SLOPE 3.8, HEPG2TOX_R_SQUARED 0.813, PBLUC_HILL_SLOPE 18.3, PBLUC_R_SQUARED 0.305, read-out: LUCIFERASE INFECTION ASSAY - IC50): 3.31 µM |
| CCOc1ccccc1NS(=O)(=O)c1ccc(C(=O)OC)cc1 | > 10 | IC50 (HEPG2TOX_HILL_SLOPE 3.9, HEPG2TOX_R_SQUARED 0.853, PBLUC_HILL_SLOPE 3.26, PBLUC_R_SQUARED 0.571, read-out: LUCIFERASE INFECTION ASSAY - IC50): 7.52 µM |
| O=C(Nc1ccccc1O)c1ccccc1NS(=O)(=O)c1ccc(Cl)s1 | 7.2 | IC50 (HEPG2TOX_HILL_SLOPE 3.8, HEPG2TOX_R_SQUARED 0.66, PBLUC_HILL_SLOPE 5.25, PBLUC_R_SQUARED 0.554, read-out: LUCIFERASE INFECTION ASSAY - IC50): 4.74 µM |
| CCCCNC(=O)NC(=O)CNc1cc(S(=O)(=O)N2CCCCC2)ccc1OCC | > 10 | IC50 (HEPG2TOX_HILL_SLOPE 3.87, HEPG2TOX_R_SQUARED 0.807, PBLUC_HILL_SLOPE 2.62, PBLUC_R_SQUARED 0.78, read-out: LUCIFERASE INFECTION ASSAY - IC50): 5.03 µM |

| Structure (SMILES) | IC90 [µM] | other results |
| --- | --- | --- |
| COc1cccc(-c2cnn3ccc(Nc4ccc(OC)nc4)nc23)c1 | 3.86 | IC50 (HEPG2TOX_HILL_SLOPE 3.92, HEPG2TOX_R_SQUARED 0.974, PBLUC_HILL_SLOPE 24.4, PBLUC_R_SQUARED 0.48, read-out: LUCIFERASE INFECTION ASSAY - IC50): 3.53 µM |
| CC(C)c1ccc(N2C(=O)/C(=C\c3ccccc3OCc3ccccn3)NC2=S)cc1 | 3.92 | IC50 (HEPG2TOX_HILL_SLOPE 3.89, HEPG2TOX_R_SQUARED 0.964, PBLUC_HILL_SLOPE 2.57, PBLUC_R_SQUARED 0.661, read-out: LUCIFERASE INFECTION ASSAY - IC50): 1.67 µM |
| COc1ccccc1Nc1ncccc1C(=O)Nc1nc2ccccc2[nH]1 | 3.78 | IC50 (HEPG2TOX_HILL_SLOPE 3.87, HEPG2TOX_R_SQUARED 0.988, PBLUC_HILL_SLOPE 17.6, PBLUC_R_SQUARED 0.638, read-out: LUCIFERASE INFECTION ASSAY - IC50): 3.34 µM |
| C=C1CC2(C)C(=CC1=O)CCC1C2CCC2(C)C(O)CCC12 (configuration not stated) | 5.89 | IC50 (HEPG2TOX_HILL_SLOPE 3.95, HEPG2TOX_R_SQUARED 0.554, PBLUC_HILL_SLOPE 10.4, PBLUC_R_SQUARED 0.356, read-out: LUCIFERASE INFECTION ASSAY - IC50): 4.77 µM |
| C[C@]12CC[C@H](O)C[C@H]1CCC1C2[C@H](O)C[C@]2(C)[C@@H](C3=CC(=O)OC3)CC[C@]12O (some centres not stated) | > 8.45 | IC50 (HEPG2TOX_HILL_SLOPE 3.83, HEPG2TOX_R_SQUARED 0.791, PBLUC_HILL_SLOPE 2.47, PBLUC_R_SQUARED 0.389, read-out: LUCIFERASE INFECTION ASSAY - IC50): 3.98 µM |
| COc1ccc(CNc2ccc3ncc(-c4ccc(Cl)cc4)n3n2)cc1 | 4.67 | IC50 (HEPG2TOX_HILL_SLOPE 3.82, HEPG2TOX_R_SQUARED 0.951, PBLUC_HILL_SLOPE 9.74, PBLUC_R_SQUARED 0.491, read-out: LUCIFERASE INFECTION ASSAY - IC50): 3.73 µM |
| CC(C)c1ccc(Nc2ccn3ncc(-c4cccc(N)c4)c3n2)cc1 | > 9.61 | IC50 (HEPG2TOX_HILL_SLOPE 3.91, HEPG2TOX_R_SQUARED 0.953, PBLUC_HILL_SLOPE 9.39, PBLUC_R_SQUARED 0.444, read-out: LUCIFERASE INFECTION ASSAY - IC50): 8 µM |
| CN(C)Cc1ccc(CNC(=O)Cc2ccc(-c3ccccc3)cc2)cc1 | 7.76 | IC50 (HEPG2TOX_HILL_SLOPE 3.86, HEPG2TOX_R_SQUARED 0.943, PBLUC_HILL_SLOPE 3.55, PBLUC_R_SQUARED 0.451, read-out: LUCIFERASE INFECTION ASSAY - IC50): 4.18 µM |
| Cn1nnnc1Sc1ccc([N+](=O)[O-])c2cnccc12 | 3.42 | IC50 (HEPG2TOX_HILL_SLOPE 3.78, HEPG2TOX_R_SQUARED 0.957, PBLUC_HILL_SLOPE 12.7, PBLUC_R_SQUARED 0.328, read-out: LUCIFERASE INFECTION ASSAY - IC50): 2.88 µM |
| N#CC(C#N)=NNc1ccc(-c2ccccc2)cc1 | > 10 | IC50 (HEPG2TOX_HILL_SLOPE 3.84, HEPG2TOX_R_SQUARED 0.689, PBLUC_HILL_SLOPE 2.62, PBLUC_R_SQUARED 0.817, read-out: LUCIFERASE INFECTION ASSAY - IC50): 4.72 µM |
| CNc1cc(-c2ccc(O)cc2C)nc2ccnn12 | 8.61 | IC50 (HEPG2TOX_HILL_SLOPE 3.86, HEPG2TOX_R_SQUARED 0.988, PBLUC_HILL_SLOPE 1.91, PBLUC_R_SQUARED 0.706, read-out: LUCIFERASE INFECTION ASSAY - IC50): 2.73 µM |
| CNc1snc(C)c1C(=O)N(C)Cc1ccc(C(C)C)cc1 | 0.0634 | IC50 (HEPG2TOX_HILL_SLOPE 3.83, HEPG2TOX_R_SQUARED 0.742, PBLUC_HILL_SLOPE 1.58, PBLUC_R_SQUARED 0.865, read-out: LUCIFERASE INFECTION ASSAY - IC50): 0.0158 µM |
| CCCNC(=O)c1c(NC(=O)c2ccc(CC)cc2)nc2ccccn12 | 3.4 | IC50 (HEPG2TOX_HILL_SLOPE 3.85, HEPG2TOX_R_SQUARED 0.726, PBLUC_HILL_SLOPE 11.9, PBLUC_R_SQUARED 0.398, read-out: LUCIFERASE INFECTION ASSAY - IC50): 2.83 µM |
| COc1ccc(CC(=O)NCc2ccccc2Cl)cc1 | > 11.4 | IC50 (HEPG2TOX_HILL_SLOPE 3.79, HEPG2TOX_R_SQUARED 0.83, read-out: LUCIFERASE INFECTION ASSAY - IC50): > 11.4 µM |
| COc1cc(Nc2ccn3ncc(-c4ccc(N)cc4)c3n2)cc(OC)c1OC | 3.83 | IC50 (HEPG2TOX_HILL_SLOPE 3.9, HEPG2TOX_R_SQUARED 0.655, PBLUC_HILL_SLOPE 12, PBLUC_R_SQUARED 0.445, read-out: LUCIFERASE INFECTION ASSAY - IC50): 3.19 µM |
